Assay results taken from publication PMC5874716, “Antimicrobial Peptides for Topical Treatment of Osteomyelitis and Implant-Related Infections: Study in the Spongy Bone” (Pharmaceuticals, 2018).
Structures can show the parent of a compound that is named as a salt.

Columns and labels:
[1] = tested on: P. aeruginosa clinical isolate from Liberec Regional Hospital; experiment: microbe, parasite or virus in culture; type: cell-based; conditions: Pseudomonas aeruginosa, read-out: Antimicrobial Activity MIC, P. a. a
Protocol: (§1) Femur heads (ca. 70 pieces) taken from patients during hip replacement surgery were periodically purchased in the period between 2014–2017 as discarded from the bone tissue bank at University Hospital in Motol, Prague, Czech Republic. The reason for the replacements by artificial prosthesis was the worn out cartilage on the surface of their heads. Bone samples were stored at −80 °C under standard conditions of certified tissue banks. In the laboratory, they were kept at +5 °C overnight and then at room temperature for several hours before they could be used for the experiments. The experiments with this material were approved by the Ethics Committee for Multi-Centric Clinical Trials of the University Hospital Motol, Reference No: EK-655/15. Methicillin-resistant S. aureus (MRSA 6271) ATCC 43300 and P. aeruginosa (5482) ATCC 27853 were purchased from the Czech National Collection of Type Cultures, National Institute of Public Health, Prague, Czech Republic. Methicillin-resistant S. aureus (MRSA (L)) and P. aeruginosa (L) were obtained as multi-resistant clinical isolates from Liberec Regional Hospital, Liberec, Czech Republic. Methicillin-resistant S. aureus (MRSA (M)), E. faecalis and S. epidermidis were obtained as clinical isolates from University Hospital in Motol, Prague. Candida albicans (F7-39/IDE99) came from the mycological collection of the Faculty of Medicine, Palacky University, Olomouc, Czech Republic. C. albicans ATCC MYA-2876, C. tropicalis ATCC 750 and C. glabrata DSY565 were kindly provided by Dr. Hana Sychrová from the Institute of Physiology, Academy of Sciences of the Czech Republic, Prague. Vancomycin hydrochloride, gentamicin sulfate, ceftriaxone disodium salt, amphotericin B, fluconazole, and clotrimazole were obtained from Sigma-Aldrich, Prague, Czech Republic.
(§2) MIC values for peptides were established by observing growth of treated bacteria in HONEYCOMB 100-well microtiter plates (Helsinki, Finland) using a Bioscreen C instrument (Oy Growth Curves, Helsinki, Finland) as previously described. Haemolytic activity of peptides expressed as the concentration of a peptide required for lysis of 50% of human erythrocytes in the assay (LC50) was measured using a Tecan infinite M200 PRO reader (Tecan Austria GmbH, Grödig, Austria). Blood samples for determining haemolytic activity were obtained from healthy volunteers.

[2] = tested on: MRSA clinical isolate from University Hospital in Motol (MRSA (M)); experiment: microbe, parasite or virus in culture; type: cell-based; conditions: Staphylococcus aureus, MRSA, read-out: Antimicrobial Activity MIC, MRSA b
Protocol: as §1, §2

[3] = tested on: P. aeruginosa (5482) ATCC 27853; experiment: microbe, parasite or virus in culture; type: cell-based; conditions: Pseudomonas aeruginosa, ATCC27853, read-out: Antimicrobial Activity MIC, P. a. 5482
Protocol: as §1, §2

[4] = tested on: E. faecalis clinical isolate (Motol); experiment: microbe, parasite or virus in culture; type: cell-based; conditions: Enterococcus faecalis, read-out: Antimicrobial Activity MIC, E. f. b
Protocol: as §1, §2

[5] = tested on: MRSA 6271 (ATCC 43300); experiment: microbe, parasite or virus in culture; type: cell-based; conditions: Staphylococcus aureus, read-out: Antimicrobial Activity MIC, MRSA 6271
Protocol: as §1, §2

[6] = tested on: MRSA clinical isolate from Liberec Regional Hospital (MRSA (L)); experiment: microbe, parasite or virus in culture; type: cell-based; conditions: Staphylococcus aureus, MRSA, read-out: Antimicrobial Activity MIC, MRSA a
Protocol: as §1, §2

[7] = tested on: S. epidermidis clinical isolate (Motol); experiment: microbe, parasite or virus in culture; type: cell-based; conditions: Staphylococcus epidermidis, read-out: Antimicrobial Activity MIC, S. e. b
Protocol: as §1, §2

[8] = tested on: MRSA clinical isolate from University Hospital in Motol (MRSA (M)); experiment: Biofilm formation on bone cement (Palacos r) model implants in infected femur head; set-up: species or system Staphylococcus aureus; conditions: cements implanted inside infected holes; Palacos r with peptide or antibiotic; 2 days; single experiment, / = two implants
Excerpt: (§3) The poly(methyl methacrylate)-based bone cement with or without AMPs was implanted either inside infected holes or inside non-infected holes. In the latter case, the microbes infiltrated towards the implant from a hole made between them at roughly equal distance from each (Figure 3). This would simulate the authentic situation in which the pathogens can infect an orthopaedic implant by spreading through the bloodstream or contiguously from areas of infection. We evaluated the experiments on the basis of the amounts of microbes released from the biofilms supposedly formed on the surfaces of the implants that were removed from the infected bone samples.
(§4) The bone samples with bored holes inside were prepared and handled as above. The bone cement (Palacos®r, Hereaus Medical GmbH, Wehrheim, Germany) with AMP incorporated was prepared by swift and thorough mixing of the polymer powder component (poly-methylacrylate, methyl methacrylate, 125 mg) and AMP (10 mg) or antibiotic (10 mg) with the liquid monomer (methyl methacrylate, N,N-dimethyl-p-toluidine, hydroquinone and colorant E141, 70 μL). The resulting elastic paste was pressed using a 2 mL plastic syringe into two bored holes, where it polymerized and solidified. The paste without peptide for filling of the remaining two holes was prepared similarly by mixing the powder component (125 mg) and liquid component (68 μL). […]

[9] = tested on: E. faecalis; experiment: as above; set-up: species or system Enterococcus faecalis; conditions: cements implanted inside infected holes; 2 days; single experiment
Excerpt: as §3, §4

[10] = tested on: C. tropicalis ATCC 750; experiment: as above; set-up: species or system Candida tropicalis; conditions: cements implanted inside infected holes; 2 days; single experiment, / = two implants
Excerpt: as §3, §4

SMILES	MIC [1] [µM]	MIC [2] [µM]	MIC [3] [µM]	MIC [4] [µM]	MIC [5] [µM]	MIC [6] [µM]	MIC [7] [µM]	CFU/Implant, *MRSA b [8]	CFU/Implant, *E. f. [9]	CFU/Implant, * C. tropicalis [10]
CN[C@H](CC(C)C)C(=O)N[C@H]1C(=O)N[C@@H](CC(N)=O)C(=O)N[C@H]2C(=O)N[C@H]3C(=O)N[C@H](C(=O)N[C@H](C(=O)O)c4cc(O)cc(O)c4-c4cc3ccc4O)[C@H](O)c3ccc(c(Cl)c3)Oc3cc2cc(c3O[C@@H]2O[C@H](CO)[C@@H](O)[C@H](O)[C@H]2O[C@H]2C[C@](C)(N)[C@H](O)[C@H](C)O2)Oc2ccc(cc2Cl)[C@H]1O [Vancomycin, Vancomycin hydrochloride, reference compound]	> 320	1.1	> 200	1.3	0.9	1.1	1.5	4.0 × 10^6 CFU/implant	4.0 × 10^6 CFU/implant	
C[C@@H]1[C@H](O)[C@@H](C)/C=C/C=C/C=C/C=C/C=C/C=C/C=C/[C@H](O[C@@H]2O[C@H](C)[C@@H](O)[C@H](N)[C@@H]2O)C[C@@H]2O[C@](O)(C[C@@H](O)C[C@@H](O)[C@H](O)CC[C@@H](O)C[C@@H](O)CC(=O)O[C@H]1C)C[C@H](O)[C@H]2C(=O)O [Amphotericin B, amphotericin B]										1.3 × 10^6 CFU/implant
